Measurements from patent US20260055079A1, “PHTHALAZINONE COMPOUNDS AS PARP7 INHIBITORS” (AZKARRA THERAPEUTICS, INC., priority 2022, published 2026).

These molecules were tested against His-GST-PARP7 (Homo sapiens (Human), UniProt Q7Z3E1) (assay: PARP7 biochemical assay). Conditions: read-out: PARP7 IC50.
Chain of His-GST-PARP7 (Q7Z3E1 whole entry): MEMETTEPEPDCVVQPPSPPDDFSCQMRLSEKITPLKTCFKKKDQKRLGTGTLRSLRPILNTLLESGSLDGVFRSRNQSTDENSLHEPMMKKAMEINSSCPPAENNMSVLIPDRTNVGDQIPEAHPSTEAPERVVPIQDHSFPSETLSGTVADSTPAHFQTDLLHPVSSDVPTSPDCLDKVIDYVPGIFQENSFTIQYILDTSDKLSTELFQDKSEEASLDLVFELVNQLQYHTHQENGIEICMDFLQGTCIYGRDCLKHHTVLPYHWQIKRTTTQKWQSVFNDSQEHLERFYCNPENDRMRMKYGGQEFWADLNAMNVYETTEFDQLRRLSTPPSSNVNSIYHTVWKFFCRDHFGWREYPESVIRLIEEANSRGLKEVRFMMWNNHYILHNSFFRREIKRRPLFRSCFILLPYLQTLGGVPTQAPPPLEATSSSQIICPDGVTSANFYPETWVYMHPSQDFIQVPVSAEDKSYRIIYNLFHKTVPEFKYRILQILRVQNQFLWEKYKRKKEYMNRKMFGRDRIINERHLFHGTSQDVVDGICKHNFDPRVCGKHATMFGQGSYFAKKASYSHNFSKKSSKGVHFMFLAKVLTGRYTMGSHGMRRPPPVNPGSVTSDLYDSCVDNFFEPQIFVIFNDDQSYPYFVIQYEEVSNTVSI
With “4-(4-Fluoro-3-(4-(5-(trifluoromethyl)pyrimidin-2-yl)piperazine-1-carbonyl)benzyl)-6-(3,3,3-trifluoroprop-1-yn-1-yl)phthalazin-1(2H)-one [Example 42]” the IC50 was 0.5 to 2 µM.
For “6-(3-(5-((7-Cyclobutoxy-4-oxo-3,4-dihydrophthalazin-1-yl)methyl)-2-fluorobenzoyl)-3,8-diazabicyclo[3.2.1]octan-8-yl)nicotinonitrile [Example 99]”, the IC50 was less than 0.05 µM.
With O=C(c1cc(Cc2n[nH]c(=O)c3ccc(OC4CCC4)cc23)ccc1F)N1C[C@@H]2CC[C@H]1CN2C(=O)C1CC1 (stereo in doubt) [Example 142, 6-Cyclobutoxy-4-(3-(5-(cyclopropanecarbonyl)-2,5-diazabicyclo[2.2.2]octane-2-carbonyl)-4-fluorobenzyl)phthalazin-1(2H)-one] the IC50 was 0.1 to 0.5 µM.
In the case of N#Cc1ccc(N2C[C@H]3C[C@@H]2CN3C(=O)c2cccc(Cc3n[nH]c(=O)c4ccc(-c5cccnc5)cc34)c2)nc1 (stereo in doubt) [Example 184, 6-(5-(3-((4-Oxo-7-(pyridin-3-yl)-3,4-dihydrophthalazin-1-yl)methyl)benzoyl)-2,5-diazabicyclo[2.2.1]heptan-2-yl)nicotinonitrile], the IC50 is reported as 0.1 to 0.5 µM.
C/C(=C\C(F)(F)F)c1ccc2c(=O)[nH]nc(Cc3ccc(F)c(C(=O)N4CCN(c5ccc(C#N)cn5)CC4)c3)c2c1 [Example 32, (E)-6-(4-(2-fluoro-5-((4-oxo-7-(4,4,4-trifluorobut-2-en-2-yl)-3,4-dihydrophthalazin-1-yl)methyl)benzoyl)piperazin-1-yl)nicotinonitrile] showed an IC50 of less than 0.05 µM.
N#Cc1ccc(N2CCN(C(=O)c3cc(Cc4n[nH]c(=O)c5ccc(N6CC7(C6)CC(F)(F)C7)cc45)ccc3F)CC2)nc1 [Example 35, 6-(4-(5-((7-(6,6-Difluoro-2-azaspiro[3.3]heptan-2-yl)-4-oxo-3,4-dihydrophthalazin-1-yl)methyl)-2-fluorobenzoyl)piperazin-1-yl)nicotinonitrile] showed an IC50 of 0.05 to 0.1 µM.
In the case of N#Cc1ccc(N2CCN(C(=O)c3cc(Cc4n[nH]c(=O)c5ccc(Oc6ccccn6)cc45)ccc3F)CC2)nc1 [Example 38, 6-(4-(2-Fluoro-5-((4-oxo-7-(pyridin-2-yloxy)-3,4-dihydrophthalazin-1-yl)methyl)benzoyl)piperazin-1-yl)nicotinonitrile], the IC50 is reported as less than 0.05 µM.
N#Cc1ccc(N2CCN(C(=O)c3cc(Cc4n[nH]c(=O)c5ccc(Oc6ccc7ccccc7c6)cc45)ccc3F)CC2)nc1 [Example 39, 6-(4-(2-Fluoro-5-((7-(naphthalen-2-yloxy)-4-oxo-3,4-dihydrophthalazin-1-yl)methyl)benzoyl)piperazin-1-yl)nicotinonitrile] was tested, and the IC50 was 0.05 to 0.1 µM.
For CC#Cc1ccc2c(=O)[nH]nc(Cc3ccc(F)c(C(=O)N4CCN(c5ncc(C(F)(F)F)cn5)CC4)c3)c2c1 [Example 48, 4-(4-Fluoro-3-(4-(5-(trifluoromethyl)pyrimidin-2-yl)piperazine-1-carbonyl)benzyl)-6-(prop-1-yn-1-yl)phthalazin-1(2H)-one], the IC50 was 0.1 to 0.5 µM.
Work on N#Cc1ccc(N2CCN(C(=O)c3cc(Cc4n[nH]c(=O)c5ccc(S(=O)(=O)C6CC(F)(F)C6)cc45)ccc3F)CC2)nc1 [Example 54, 6-(4-(5-((7-((3,3-Difluorocyclobutyl)sulfonyl)-4-oxo-3,4-dihydrophthalazin-1-yl)methyl)-2-fluorobenzoyl)piperazin-1-yl)nicotinonitrile] yielded an IC50 of 0.5 to 2 µM.
CC#Cc1ccc2c(=O)[nH]nc(Cc3ccc(F)c(C(=O)N4CCN(c5cncc(C#N)n5)CC4)c3)c2c1 [Example 55, 6-(4-(2-Fluoro-5-((4-oxo-7-(prop-1-ynyl)-3,4-dihydrophthalazin-1-yl)methyl)benzoyl)piperazin-1-yl)pyrazine-2-carbonitrile] gave an IC50 of 0.1 to 0.5 µM.
CC#Cc1ccc2c(=O)[nH]nc(Cc3ccc(F)c(C(=O)N4CCN(C(=O)CCC(F)(F)F)CC4)c3)c2c1 [Example 57, 4-(4-Fluoro-3-(4-(4,4,4-trifluorobutanoyl)piperazine-1-carbonyl)benzyl)-6-(prop-1-ynyl)phthalazin-1(2H)-one] gave an IC50 of less than 0.05 µM.
CC#Cc1ccc2c(=O)[nH]nc(Cc3ccc(F)c(C(=O)N4CCn5c(nnc5-c5ccccc5CC)C4)c3)c2c1 [Example 59, 4-(3-(3-(2-Ethylphenyl)-5,6,7,8-tetrahydro-[1,2,4]triazolo[4,3-a]pyrazine-7-carbonyl)-4-fluorobenzyl)-6-(prop-1-ynyl)phthalazin-1(2H)-one] showed an IC50 of 0.1 to 0.5 µM.
CC#Cc1ccc2c(=O)[nH]nc(Cc3ccc(F)c(C(=O)N4CC5CCC(C4)N5c4ccc(C#N)cn4)c3)c2c1 [Example 64, 6-(3-(2-Fluoro-5-((4-oxo-7-(prop-1-ynyl)-3,4-dihydrophthalazin-1-yl)methyl)benzoyl)-3,8-diazabicyclo[3.2.1]octan-8-yl)nicotinonitrile] showed an IC50 of less than 0.05 µM.
In the case of CC#Cc1ccc2c(=O)[nH]nc(Cc3ccc(F)c(C(=O)N4C[C@@H]5C[C@H]4CN5c4ccc(C#N)cn4)c3)c2c1 [Example 68, 6-((1S,4S)-5-(2-fluoro-5-((4-oxo-7-(prop-1-ynyl)-3,4-dihydrophthalazin-1-yl)methyl)benzoyl)-2,5-diazabicyclo[2.2.1]heptan-2-yl)nicotinonitrile], the IC50 is reported as 0.5 to 2 µM.
In the case of [2H]C([2H])(c1ccc(F)c(C(=O)N2CCN(c3ccc(C#N)cn3)CC2)c1)c1n[nH]c(=O)c2ccc(C#CC)cc12 [Example 73, 6-(4-(2-Fluoro-5-((4-oxo-7-(prop-1-yn-1-yl)-3,4-dihydrophthalazin-1-yl)methyl-d2)benzoyl)piperazin-1-yl)nicotinonitrile], the IC50 is reported as less than 0.05 µM.
For CC#Cc1ccc2c(=O)[nH]nc(Cc3ccc4c(c3)C(=O)N(CCN(CC)c3ccc(C#N)cn3)C4)c2c1 [Example 75, 6-(Ethyl(2-(1-oxo-6-((4-oxo-7-(prop-1-ynyl)-3,4-dihydrophthalazin-1-yl)methyl)isoindolin-2-yl)ethyl)amino)nicotinonitrile], the IC50 was greater than 2 µM.
CC#Cc1ccc2c(=O)[nH]nc(Cc3ccc(F)c(C#N)c3)c2c1 [Example 76, 2-Fluoro-5-((4-oxo-7-(prop-1-yn-1-yl)-3,4-dihydrophthalazin-1-yl)methyl)benzonitrile] showed an IC50 greater than 2 µM.
CC#Cc1ccc2c(=O)[nH]nc(Cc3cc(C(=O)N4CCN(c5ccc(C#N)cn5)CC4)c(F)cc3F)c2c1 [Example 77, 6-(4-(2,4-Difluoro-5-((4-oxo-7-(prop-1-yn-1-yl)-3,4-dihydrophthalazin-1-yl)methyl)benzoyl)piperazin-1-yl)nicotinonitrile] showed an IC50 of less than 0.05 µM.
CC#Cc1ccc2c(=O)[nH]nc(Cc3ccc(F)c(C(NCCN(CC)c4ccc(C#N)cn4)C(F)(F)F)c3)c2c1 (stereo not drawn) [Example 78, 6-(Ethyl(2-((2,2,2-trifluoro-1-(2-fluoro-5-((4-oxo-7-(prop-1-yn-1-yl)-3,4-dihydrophthalazin-1-yl)methyl)phenyl)ethyl)amino)ethyl)amino)nicotinonitrile] was tested, and the IC50 was greater than 2 µM.
CC#Cc1ccc2c(=O)[nH]nc(Cc3ccc(F)c(C(=O)N4CCN(c5ncc(C)n5C)CC4)c3)c2c1 [Example 79, 4-(3-(4-(1,5-Dimethyl-1H-imidazol-2-yl)piperazine-1-carbonyl)-4-fluorobenzyl)-6-(prop-1-ynyl)phthalazin-1(2H)-one] gave an IC50 of 0.1 to 0.5 µM.
Work on COc1c(Oc2ccccc2)ccc2c(=O)[nH]nc(Cc3ccc(F)c(C(=O)N4CCN(c5ccc(C#N)cn5)CC4)c3)c12 [Example 89, 6-(4-(2-Fluoro-5-((8-methoxy-4-oxo-7-phenoxy-3,4-dihydrophthalazin-1-yl)methyl)benzoyl)piperazin-1-yl)nicotinonitrile] yielded an IC50 of 0.05 to 0.1 µM.
Cc1cccc(Oc2ccc3c(=O)[nH]nc(Cc4ccc(F)c(C(=O)N5CCN(c6ccc(C#N)cn6)CC5)c4)c3c2)c1 [Example 90, 6-(4-(2-fluoro-5-((4-oxo-7-(m-tolyloxy)-3,4-dihydrophthalazin-1-yl)methyl)benzoyl)piperazin-1-yl)nicotinonitrile] showed an IC50 of less than 0.05 µM.
For N#Cc1ccnc(N2CCN(C(=O)c3cc(Cc4n[nH]c(=O)c5ccc(OC6CCC6)cc45)ccc3F)CC2)c1 [Example 95, 2-(4-(5-((7-Cyclobutoxy-4-oxo-3,4-dihydrophthalazin-1-yl)methyl)-2-fluorobenzoyl)piperazin-1-yl)isonicotinonitrile], the IC50 was less than 0.05 µM.
Molecule N#Cc1ccc(N2C[C@H]3CC[C@@H](C2)N3C(=O)c2cc(Cc3n[nH]c(=O)c4ccc(OC5CCC5)cc34)ccc2F)nc1 [Example 96, 6-(8-(5-((7-Cyclobutoxy-4-oxo-3,4-dihydrophthalazin-1-yl)methyl)-2-fluorobenzoyl)-3,8-diazabicyclo[3.2.1]octan-3-yl)nicotinonitrile] has an IC50 of less than 0.05 µM.
In the case of O=C(c1cc(Cc2n[nH]c(=O)c3ccc(OC4CCC4)cc23)ccc1F)N1[C@@H]2CC[C@H]1CN(c1ncc(C(F)(F)F)cn1)C2 [Example 97, 6-cyclobutoxy-4-(4-fluoro-3-(3-(5-(trifluoromethyl)pyrimidin-2-yl)-3,8-diazabicyclo[3.2.1]octane-8-carbonyl)benzyl)phthalazin-1(2H)-one], the IC50 is reported as less than 0.05 µM.
O=C(c1cc(Cc2n[nH]c(=O)c3ccc(OC4CCC4)cc23)ccc1F)N1C[C@H]2CC[C@@H](C1)N2c1ncc(C(F)(F)F)cn1 [Example 100, 6-Cyclobutoxy-4-(4-fluoro-3-(8-(5-(trifluoromethyl)pyrimidin-2-yl)-3,8-diazabicyclo[3.2.1]octane-3-carbonyl)benzyl)phthalazin-1(2H)-one] was tested, and the IC50 was less than 0.05 µM.
Work on O=C(c1cc(Cc2n[nH]c(=O)c3ccc(OC4CCC4)cc23)ccc1F)N1CC(Nc2ncc(C(F)(F)F)cn2)C1 [Example 102, 6-Cyclobutoxy-4-(4-fluoro-3-(3-((5-(trifluoromethyl)pyrimidin-2-yl)amino)azetidine-1-carbonyl)benzyl)phthalazin-1(2H)-one] yielded an IC50 of 0.05 to 0.1 µM.
O=C(c1cc(Cc2n[nH]c(=O)c3ccc(OC4CCC4)cc23)ccc1F)N1CCC2C1CCN2c1ncc(C(F)(F)F)cn1 (stereo not drawn) [Example 103, 6-Cyclobutoxy-4-(4-fluoro-3-(4-(5-(trifluoromethyl)pyrimidin-2-yl)octahydropyrrolo[3,2-b]pyrrole-1-carbonyl)benzyl)phthalazin-1(2H)-one] was tested, and the IC50 was 0.05 to 0.1 µM.
N#Cc1ccc(NC2CN(C(=O)c3cc(Cc4n[nH]c(=O)c5ccc(OC6CCC6)cc45)ccc3F)C2)nc1 [Example 104, 6-((1-(5-((7-Cyclobutoxy-4-oxo-3,4-dihydrophthalazin-1-yl)methyl)-2-fluorobenzoyl)azetidin-3-yl)amino)nicotinonitrile] showed an IC50 of 0.05 to 0.1 µM.
